Measurements as given in US20230416205A1, “COMPOUNDS, COMPOSITIONS, AND METHODS” (Denali Therapeutics Inc, priority 2020, published 2023).

Tested on: NLRP3
Assay: IL-1β secretion assay in PMA-differentiated, LPS/nigericin-stimulated THP-1 cells (384-well, ELISA read-out)
Assay type: cell-based, human
Details: Homo sapiens, THP-1, Table 4; IL-1β secretion, LPS/nigericin-stimulated THP-1 cells; read-out: IC50
Procedure, shortened: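 THP-1 cells differentiated with PMA (5 ng/mL, 40 h), primed in serum-free medium with 25 ng/mL LPS for 2 h, treated with compounds 1 h (0.5% DMSO), then stimulated with nigericin for 2 h at 37 °C. Supernatant IL-1β measured by ELISA; responses normalized to LPS+5 μM nigericin and LPS-only controls.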

Row | Compound | IC50 [µM]
1 | O=C(CN1CC2(CC2)c2cc(Br)ccc2C1=O)Nc1ncn(C2CC2)n1 [Example 422, 2-(6-bromo-1-oxospiro[3H-isoquinoline-4,1′-cyclopropane]-2-yl)-N-(1-cyclopropyl-1,2,4-triazol-3-yl)acetamide] | 3.08
2 | O=C(CN1CC2(CC2)c2cc(CC3CC3)ccc2C1=O)Nc1ncc(F)cn1 [Example 423, 2-[6-(cyclopropylmethyl)-1-oxospiro[3H-isoquinoline-4,1′-cyclopropane]-2-yl]-N-(5-fluoropyrimidin-2-yl)acetamide] | 18.4
3 | O=C(CN1CC2(CC2)c2cc(Br)ccc2C1=O)Nc1ncc(C2=COCC2)cn1 [Example 424, 2-(6-bromo-1-oxospiro[3H-isoquinoline-4,1′-cyclopropane]-2-yl)-N-[5-(2,3-dihydrofuran-4-yl)pyrimidin-2-yl]acetamide] | 0.7
4 | O=C(CN1CC2(CC2)c2cc(Br)ccc2C1=O)Nc1ncn(CC(F)(F)F)n1 [Example 425, 2-(6-bromo-1-oxospiro[3H-isoquinoline-4,1′-cyclopropane]-2-yl)-N-[1-(2,2,2-trifluoroethyl)-1,2,4-triazol-3-yl]acetamide] | 2.85
5 | O=C(CN1CC2(CC2)c2cc(Br)ccc2C1=O)NC1CC(c2ccccc2)C1 (stereo not drawn) [Example 427, 2-(6-bromo-1-oxospiro[3H-isoquinoline-4,1′-cyclopropane]-2-yl)-N-(3-trans-phenylcyclobutyl)acetamide] | 6.28
6 | O=C(CN1CC2(CC2)c2cc(Br)ccc2C1=O)Nc1nc2c(Cl)cccn2n1 [Example 429, 2-(6-bromo-1-oxospiro[3H-isoquinoline-4,1′-cyclopropane]-2-yl)-N-(8-chloro-[1,2,4]triazolo[1,5-a]pyridin-2-yl)acetamide] | 1.66
7 | O=C(CN1CC2(CC2)c2cc(Br)ccc2C1=O)Nc1ccc(=O)[nH]n1 [Example 430, 2-(6-bromo-1-oxospiro[3H-isoquinoline-4,1′-cyclopropane]-2-yl)-N-(6-oxo-1H-pyridazin-3-yl)acetamide] | 0.634
